Results from US20240148720A1, “Use of Histamine Antagonists and Glucocorticoid for Treating and Preventing Neurodegenerative Diseases” (City University of Hong Kong, priority 2022, published 2024).
Where a name gives a salt, the structure may show the parent alone.

Tests used:
[1] = cited from earlier work
[2] = molecular target: histamine H4 receptor (Homo sapiens, UniProt Q9H3N8); details: cited from earlier work
[3] = cited from earlier work; remark: listed apart in the source
[4] = tested on: APP/PS1 mice; assay: Novel object recognition test, APP/PS1 mice; details: 8-month-old APP/PS1 mice; VUF6002 2.5 mg/kg i.p. daily 1 month; vs vehicle; FIG. 2C
[5] = tested on: 3xTg-AD mice; assay: Y-maze test, 3xTg-AD mice; details: 17-month-old 3xTg-AD mice; VUF6002 2.5 mg/kg daily about 3 months; FIG. 3B
[6] = tested on: APP/PS1 mice; assay: Y-maze test, APP/PS1 mice; details: 8-month-old APP/PS1 mice
[7] = tested on: 3xTg-AD mice; assay: Barnes maze test, 3xTg-AD mice; details: 17-month-old 3xTg-AD mice, VUF6002 2.5 mg/kg daily about 3 months
[8] = tested on: STZ-treated mice; assay: Barnes maze test, streptozocin-induced sporadic AD mouse model; details: STZ ICV mice, VUF6002 2.5 mg/kg i.p. 21 days
[9] = tested on: 3xTg-AD mice; assay: Novel object recognition test, 3xTg-AD mice; details: 17-month-old 3xTg-AD mice; VUF6002 2.5 mg/kg daily about 3 months; FIG. 3C
[10] = tested on: STZ-treated mice; assay: Y-maze spontaneous alternation test, streptozocin-induced sporadic AD mouse model; details: STZ ICV mice; VUF6002 2.5 mg/kg i.p. daily for 21 days; FIG. 1B
[11] = rats; 100 mg/kg; cited from earlier work
[12] = tested on: APP/PS1 mice; assay: Morris Water Maze test, APP/PS1 mice; details: 8-month-old APP/PS1 mice; for escape latency to find the hidden platform: FIG. 6C
[13] = tested on: microglia; assay: Anti-IBA-1 immunostaining of microglia in hippocampal CA1 of 3xTg-AD mice; details: 17-month-old 3xTg-AD mice
[14] = tested on: hyperphosphorylated Tau; assay: Anti-AT8 immunostaining of hyperphosphorylated Tau in hippocampus of 3xTg-AD mice; details: 17-month-old 3xTg-AD mice

histamine H4 receptor, sequence (Q9H3N8 whole entry, species assumed): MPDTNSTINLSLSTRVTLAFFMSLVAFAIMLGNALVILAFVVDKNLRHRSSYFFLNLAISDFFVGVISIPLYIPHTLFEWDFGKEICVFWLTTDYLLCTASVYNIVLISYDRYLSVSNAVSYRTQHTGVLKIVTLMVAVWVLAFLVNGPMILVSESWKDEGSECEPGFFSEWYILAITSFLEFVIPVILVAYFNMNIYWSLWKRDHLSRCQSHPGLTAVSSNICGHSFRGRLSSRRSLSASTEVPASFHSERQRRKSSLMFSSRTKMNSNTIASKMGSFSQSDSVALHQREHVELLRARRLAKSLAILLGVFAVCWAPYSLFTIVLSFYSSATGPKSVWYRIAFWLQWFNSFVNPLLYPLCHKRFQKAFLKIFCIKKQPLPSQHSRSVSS

Compound: CC(C)c1cc(N2CC[C@@H](N)C2)nc(N)n1 [JNJ39758979]
- severe side effects in humans [1]: may induces agranulocytosis in humans

Compound: CN1CCN2c3ccccc3Cc3ccccc3C2C1 (stereo not shown) [Mianserin]
- binding to histamine receptors [2]: can bind to histamine H1, H3, and H4 receptors

Compound: S=C(NC1CCCCC1)N1CCC(c2cnc[nH]2)CC1 [Thioperamide]
- binding to histamine receptors [2]: can bind to histamine H3 and H4 receptors

Compound: CN1CCN(C(=O)c2nc3cc(Cl)ccc3[nH]2)CC1 [VUF6002, 1-[(5-chloro-1H-benzimidazol-2-yl)carbonyl]-4-methylpiperazine maleate]
- severe side effect on animal models [3]: has not been reported to have a severe side effect
- recognition index [4]: significantly elevates
- short-term memory, performance on Y-maze [5]: completely reverse the memory deficit
- spontaneous alternation rate ([6]; VUF6002 2.5 mg/kg i.p. daily 1 month, vs vehicle, FIG. 2B): significantly elevates
- performance during the training phase of Barnes Maze test ([7]; FIG. 3D): marked improvement
- primary errors to find the target hole, probe test ([7]; vs vehicle, FIG. 3E): make fewer errors to find the target hole
- time spent in the target quadrant, probe test ([7]; vs vehicle, FIG. 3F): spend more time in the target quadrant
- error to find the target hole, probe trial ([8]; FIG. 1E): reduces the error to find the target hole
- time spent in target quadrant, probe trial ([8]; FIG. 1F): markedly increases the time spent in target quadrant
- latency to get into the hidden escape box (long-term spatial memory) ([8]; day 25 post injection, FIG. 1D): completely reverses the STZ-induced long-term memory deficits
- short-term memory, performance on novel object recognition test [9]: completely reverse the memory deficit
- spontaneous alternation rate (short-term spatial working memory) [10]: completely reversed
- anti-inflammation effect [11]: revealed an anti-inflammation effect
- long-term spatial memory during the training phase ([12]; VUF6002 2.5 mg/kg i.p. daily 1 month, FIG. 2D): markedly improved
- number of platform crosses, probe test ([12]; VUF6002 2.5 mg/kg i.p. daily 1 month, vs vehicle, FIG. 2E): make more attempts to swim across the original location of the platform
- time spent in the target quadrant, probe test ([12]; VUF6002 2.5 mg/kg i.p. daily 1 month, vs vehicle, FIG. 2F): spend more time on searching the platform in the target quadrant
- intensity of Iba-1-positive microglia, hippocampal CA1 region ([13]; VUF6002 2.5 mg/kg 3 months, FIG. 5A): markedly reduces the intensity of Iba-1-positive
- density of microglia, hippocampal CA1 region ([13]; VUF6002 2.5 mg/kg, FIG. 5B): significantly reduces the density of microglia
- mean intensity of AT8 (p-Tau), CA1 region of hippocampus ([14]; VUF6002 2.5 mg/kg 3 months, FIG. 4C-4D): markedly reduces the mean intensity of AT8

Compound: C[C@@H]1C[C@H]2[C@@H]3CCC4=CC(=O)C=C[C@]4(C)[C@@]3(F)[C@@H](O)C[C@]2(C)[C@@]1(O)C(=O)CO [dexamethasone, (11β,16α)-9-Fluoro-11,17,21-trihydroxy-16-methylpregna-1,4-diene-3,20-dione]
- spontaneous alternation rate (short-term spatial working memory) ([6]; dexamethasone 1 mg/kg i.p. two months, FIG. 6A): prominently improves the short-term memory deficits
- escape latency to find the hidden platform ([12]; dexamethasone 1 mg/kg i.p. one month, vs vehicle): does not significantly reduce the latency
- escape latency to find the hidden platform ([12]; dexamethasone 1 mg/kg i.p. two months): reverses the long-term memory deficits
- number of platform crosses, probe test ([12]; dexamethasone 1 mg/kg i.p. two months, vs vehicle, FIG. 6D): conspicuously increased number of platform crosses
- time spent in the target quadrant, probe test ([12]; dexamethasone 1 mg/kg i.p. two months, vs vehicle, FIG. 6E): conspicuously increased
- reduction of phosphorylated Tau (AT8) intensity, hippocampal subiculum area ([14]; dexamethasone from 14- to 17-month-old, FIG. 7C-7D): 53.3%
